Data taken from patent US4272437A, “Antibacterial agents, and 4-thio azetidinone intermediates” (priority 1979, dated 1981).
In brackets after ≈: the same amount, converted by molar mass. Like-named read-outs stand apart in the source and are kept apart here.

Legend:
K. pneumoniae A-15130 = test: MIC, tube dilution, Klebsiella pneumoniae A15130; type: cell-based; details: Klebsiella pneumoniae, A15130, K. pneumoniae A15130; overnight 37° C.; read-out: Minimum Inhibitory Concentration (M.I.C.)
Description: (§1) Representative compounds of the present invention were subjected to in vitro antibiotic screening against a variety of microorganisms.

Pr. morganii A-15153 = test: MIC, tube dilution, Proteus morganii A15153; type: cell-based; details: Morganella morganii, A15153, Proteus morganii A15153; overnight 37° C.; read-out: Minimum Inhibitory Concentration (M.I.C.)
Description: as §1

Ser. marcescens A-20019 = test: MIC, tube dilution, Serratia marcescens A20019; type: cell-based; details: Serratia marcescens, A20019, Serratia marcescens A20019; overnight 37° C.; read-out: Minimum Inhibitory Concentration (M.I.C.)
Description: as §1

[1] = test system: Staph. aureus (Meth-Res) A-15097; test: MIC, tube dilution, Staphylococcus aureus A15097 (Meth-Res); type: cell-based; details: Staphylococcus aureus, overnight 37° C.
Description: as §1

Str. pyogenes A-9604 = test: MIC, tube dilution, Streptococcus pyogenes A9604; type: cell-based; details: Streptococcus pyogenes, A9604, Str. pyogenes A9604; overnight 37° C., Nutrient Broth; read-out: Minimum Inhibitory Concentration (M.I.C.)
Description: as §1

Ent. cloacae A-9659 = test: MIC, tube dilution, Enterobacter cloacae A9659; type: cell-based; details: Enterobacter cloacae, A9659, Enterobacter cloacae A9659; overnight 37° C.; read-out: Minimum Inhibitory Concentration (M.I.C.)
Description: as §1

Ps. aeruginosa A-9843A = test: MIC, tube dilution, Pseudomonas aeruginosa A9843A; type: cell-based; details: Pseudomonas aeruginosa, A9843A, read-out: Minimum Inhibitory Concentration (M.I.C.), Pseudomonas aeruginosa A9843A; overnight 37° C.
Description: as §1

Str. faecalis A-20688 = test: MIC, tube dilution, Streptococcus faecalis A20688; type: cell-based; details: Enterococcus faecalis, A20688, Str. faecalis A20688; overnight 37° C.; read-out: Minimum Inhibitory Concentration (M.I.C.)
Description: as §1

Staph. aureus A-9537 = test: MIC, tube dilution, Staphylococcus aureus A9537; type: cell-based; details: Staphylococcus aureus, A9537, Staph. aureus A9537; overnight 37° C., Nutrient Broth; read-out: Minimum Inhibitory Concentration (M.I.C.)
Description: as §1

Str. pneumoniae A-9585 = test: MIC, tube dilution, Streptococcus pneumoniae A9585; type: cell-based; details: Streptococcus pneumoniae, A9585, Str. pneumoniae A9585; overnight 37° C., Nutrient Broth; read-out: Minimum Inhibitory Concentration (M.I.C.)
Description: as §1

Ps. aeruginosa A-21213 = test: MIC, tube dilution, Pseudomonas aeruginosa A21213; type: cell-based; details: Pseudomonas aeruginosa A21213; overnight 37° C.; read-out: Minimum Inhibitory Concentration (M.I.C.)
Description: as §1

[2] = test system: Klebsiella species A20468; test: MIC, tube dilution, Klebsiella species A20468; type: cell-based; details: Klebsiella species (K. pneumoniae) A20468; overnight 37° C.; read-out: Minimum Inhibitory Concentration (M.I.C.)
Description: as §1

[3] = test system: Staph. aureus (Pen-Res) A-9606; test: MIC, tube dilution, Staphylococcus aureus A9606 (Pen-Res); type: cell-based; details: Staphylococcus aureus, overnight 37° C.
Description: as §1

[4] = test system: Providencia stuartii A21205; test: MIC, tube dilution, Providencia stuartii (Pr. rettgeri) A21205; type: cell-based; details: Providencia stuartii
Description: as §1

Ent. cloacae A-9656 = test: MIC, tube dilution, Enterobacter cloacae A9656; type: cell-based; details: Enterobacter cloacae A9656; overnight 37° C.; read-out: Minimum Inhibitory Concentration (M.I.C.)
Description: as §1

E. coli A-20341-1 = test: MIC, tube dilution, Escherichia coli A20341-1; type: cell-based; details: Escherichia coli, A203411; E. coli A20341-1; overnight 37° C.; read-out: Minimum Inhibitory Concentration (M.I.C.)
Description: as §1

Pr. mirabilis A-9900 = test: MIC, tube dilution, Proteus mirabilis A9900; type: cell-based; details: Proteus mirabilis, A9900, Proteus mirabilis A9900; overnight 37° C.; read-out: Minimum Inhibitory Concentration (M.I.C.)
Description: as §1

E. coli A-15119 = test: MIC, tube dilution, Escherichia coli A15119; type: cell-based; details: Escherichia coli, A15119, E. coli A15119; overnight 37° C.; read-out: Minimum Inhibitory Concentration (M.I.C.)
Description: as §1

Pr. vulgaris A-9716 = test: MIC, tube dilution, Proteus vulgaris / Proteus mirabilis A9716; type: cell-based, Proteus vulgaris (name changed to Proteus mirabilis); details: Proteus vulgaris, overnight 37° C.
Description: as §1

[5] = test system: Staph. aureus A-9537 and 50% serum; test: MIC, tube dilution, Staph. aureus A9537 + 50% serum; type: cell-based, Staphylococcus aureus; details: Staphylococcus aureus, overnight 37° C., read-out: Minimum Inhibitory Concentration (M.I.C.)
Description: as §1

[6] = read-out: Minimum Inhibitory Concentration (M.I.C.), Staph. aureus A15097 (Meth-Res)
[7] = Staph. aureus A9606 (Pen-Res), read-out: Minimum Inhibitory Concentration (M.I.C.)
[8] = A21205, Providencia stuartii (Pr. rettgeri) A21205, overnight 37° C., read-out: Minimum Inhibitory Concentration (M.I.C.)
[9] = A9716, Proteus vulgaris / Proteus mirabilis A9716, read-out: Minimum Inhibitory Concentration (M.I.C.)

| SMILES | MIC (K. pneumoniae A-15130) | MIC (Pr. morganii A-15153) | MIC (Ser. marcescens A-20019) | MIC [1, 6] | MIC (Str. pyogenes A-9604) | MIC (Ent. cloacae A-9659) | MIC (Ps. aeruginosa A-9843A) | MIC (Str. faecalis A-20688) | MIC (Staph. aureus A-9537) | MIC (Str. pneumoniae A-9585) | MIC (Ps. aeruginosa A-21213) | MIC [2] | MIC (Ent. cloacae A-9656) | MIC (E. coli A-20341-1) | MIC (Pr. mirabilis A-9900) | MIC (E. coli A-15119) | MIC [5] | MIC [3, 7] | MIC [4, 8] | MIC (Pr. vulgaris A-9716; [9]) | also measured |
| --- | --- | --- | --- | --- | --- | --- | --- | --- | --- | --- | --- | --- | --- | --- | --- | --- | --- | --- | --- | --- | --- |
| COCC1=C(C(=O)[O-])N2C(=O)C[C@H]2S1.[Na+] [Preparation 6, Sodium 2-Methoxymethylpenem-3-carboxylate] | 8 µg/mL | 4 µg/mL | 4 µg/mL | > 125 µg/mL | 0.25 µg/mL | 4 µg/mL | > 125 µg/mL | 32 µg/mL | 0.5 µg/mL | 0.06 µg/mL | > 125 µg/mL | > 125 µg/mL | 8 µg/mL | 125 µg/mL | 2 µg/mL | 2 µg/mL | 32 µg/mL |  |  |  | MIC ([3]; read-out: Minimum Inhibitory Concentration (M.I.C.), Staph. aureus A9606 (Pen-Res)): 2 µg/mL; MIC ([4]; A21205, read-out: Minimum Inhibitory Concentration (M.I.C.)): 2 µg/mL; MIC (Pr. vulgaris A-9716; A9716, read-out: Minimum Inhibitory Concentration (M.I.C.), Proteus vulgaris / Proteus mirabilis A9716): 2 µg/mL |
| CSC1C(=O)N2C(C(=O)O)=C(C)SC12 (stereo not drawn) [Example 5, Potassium 6-Thiomethyl-2-methylpenem-3-carboxylate] | 63 µg/mL | 125 µg/mL | 63 µg/mL |  | 4 µg/mL | 125 µg/mL | > 125 µg/mL | 125 µg/mL | 4 µg/mL | 0.5 µg/mL | > 125 µg/mL | > 125 µg/mL | 125 µg/mL | 125 µg/mL | 63 µg/mL | 63 µg/mL | > 63 µg/mL | 9 µg/mL | 32 µg/mL | 32 µg/mL | MIC ([1]; Staph. aureus A15097 (Meth-Res), read-out: Minimum Inhibitory Concentration (M.I.C.)): 63 µg/mL |
| O=C(O)C1=C(CCCCN2C(=O)c3ccccc3C2=O)SC2CC(=O)N12 (stereo not drawn) [Example 43, 2-(4'-Phthalimido-1'-butyl)penem-3-carboxylic Acid] | > 125 µg/mL | 32 µg/mL (≈ 85.9 µM) | 16 µg/mL (≈ 43 µM) | > 125 µg/mL | 0.25 µg/mL (≈ 0.671 µM) | > 125 µg/mL | > 125 µg/mL | 16 µg/mL (≈ 43 µM) | 0.03 µg/mL (≈ 0.0806 µM) | 0.016 µg/mL (≈ 0.043 µM) | > 125 µg/mL | > 125 µg/mL | 125 µg/mL (≈ 336 µM) | > 125 µg/mL | 32 µg/mL (≈ 85.9 µM) | 63 µg/mL (≈ 169 µM) | 63 µg/mL | 16 µg/mL (≈ 43 µM) | 63 µg/mL (≈ 169 µM) | 16 µg/mL (≈ 43 µM) |  |
